Measured values taken from patent US12690589B2, “Herbicidal compositions comprising pyroxasulfone” (BASF SE, priority 2024, dated 2026).
Values joined by “and” are separate entries in the source; they are usually repeats but may differ in a detail not shown here. Equal values may be shown once.

Experiments:
Test in all cases: Post-emergence application in field trials, herbicidal activity (damage scale 0 to 100%)
Assay type in all cases: in vivo
[1] = tested on: Spermacoce latifolia (BOILF); details: 21 DAT, Table 2.5
[2] = tested on: Portulaca oleracea (POROL); details: growth stage 14-16, height 5-10 cm, 20 DAT, Table 2.1
Panicum maximum (PANMA) = details: height 20-25 cm, 21 DAT, Table 2.3
Eleusine indica (ELEIN) = tested on: Eleusine indica (ELEIN)
Ipomoea triloba (IPOTR) = details: height 20-25 cm, 21 DAT, Table 2.2
[3] = tested on: Euphorbia heterophylla (EPHHL); details: 21 DAT
[4] = tested on: Galinsoga parviflora (GASPA); details: height 15-35 cm, 21 DAT, Table 2.4
Bidens pilosa (BIDPI) = tested on: Bidens pilosa (BIDPI)
[5] = tested on: Amaranthus viridis (AMAVI); details: growth stage 16-18, height 10-15 cm, 20 DAT, Table 2.1
[6] = tested on: Amaranthus palmeri (AMAPA); details: height 30 cm, 21 DAT, Table 1.1
Procedure: In the examples below, using the method of S. R. Colby (1967) “Calculating synergistic and antagonistic responses of herbicide combinations”, Weeds 15, p. 22ff., the value E, which is expected if the activity of the individual active compounds is only additive, was calculated:
[formula] • wherein • X=percent activity using active herbicide A at an application rate a; • Y=percent activity using active herbicide B (e.g. pyroxasulfone) at an application rate b; • E=expected activity (in %) by A+B at application rates a+b.
If the value found experimentally is higher than the value E calculated according to Colby, a synergistic effect is present.
On field test sites, natural weed infestation or seeded weeds were treated post-emergence of the weeds.
In the field trials, the weeds were treated as indicated below.
In the following experiments, the herbicidal activity for the individual herbicidal compositions (solo and mixture applications) was assessed at the indicated days after treatment (DAT). The assessments for the damage on undesired weeds caused by the composition was carried out using a scale from 0 to 100%, compared to the untreated control plants. Here, 0 means no damage and 100 means complete destruction of the plants. […]

[7] = tested on: Lolium multiflorum (LOLMU)
In short: (§1)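 Field sites with natural or seeded weeds were sprayed post-emergence via flat fan nozzles in 200 l/ha water plus 0.25 v/v % MSO adjuvant, solo or mixed with pyroxasulfone and other partners. Damage was scored 0–100% versus untreated plants at indicated DAT. Colby expected values were used to judge synergy.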

[8] = tested on: Amaranthus retroflexus (AMARE)
In short: as §1

[9] = 7 DAT, stage 22-25, height 20-25 cm, g ai/ha A-1 12.5, B 70, C-12 252
[10] = 7 DAT, stage 22-25, height 20-25 cm, g ai/ha A-1 18, B 70, C-12 252
[11] = 7 DAT, stage 22-25, height 20-25 cm, g ai/ha A-1 18, B 90, C-12 252
[12] = 21 DAT, stage 22-25, height 20-25 cm, g ai/ha A-1 12.5, B 70, C-12 252
[13] = 21 DAT, stage 22-25, height 20-25 cm, g ai/ha A-1 18, B 70, C-12 252
[14] = 21 DAT, stage 22-25, height 20-25 cm, g ai/ha A-1 18, B 90, C-12 252
[15] = 28 DAT, stage 22-25, height 20-25 cm, g ai/ha A-1 12.5, B 70, C-12 252
[16] = 28 DAT, stage 22-25, height 20-25 cm, g ai/ha A-1 18, B 70, C-12 252
[17] = 28 DAT, stage 22-25, height 20-25 cm, g ai/ha A-1 18, B 90, C-12 252
[18] = 7 DAT, stage 31-49, height 10-12 cm, g ai/ha A-1 12.5, B 70, C-4 12.5
[19] = 21 DAT, stage 31-49, height 10-12 cm, g ai/ha A-1 18, B 70, C-12 252
[20] = 21 DAT, stage 31-49, height 10-12 cm, g ai/ha A-1 18, B 90, C-12 252
[21] = 42 DAT, stage 31-49, height 10-12 cm, g ai/ha A-1 12.5, B 70, C-4 12.5
[22] = 42 DAT, stage 31-49, height 10-12 cm, g ai/ha A-1 18, B 70
[23] = 42 DAT, stage 31-49, height 10-12 cm, g ai/ha A-1 18, B 70, C-4 12.5
[24] = 42 DAT, stage 31-49, height 10-12 cm, g ai/ha A-1 18, B 90, C-4 12.5

Measured: % Herbicidal activity

CCOC(=O)COc1ccccc1Oc1nc(-n2c(=O)cc(C(F)(F)F)n(C)c2=O)c(F)cc1Cl [A-1, ethyl 2-[2-[[3-chloro-5-fluoro-6-[3-methyl-2,6-dioxo-4-(trifluoromethyl)pyrimidin-1-yl]-2-pyridyl]oxy]phenoxy]acetate]
52%: Eleusine indica (ELEIN); height 20-25 cm, A-1 25 g ai/ha, 21 DAT, Table 2.3
77%: Bidens pilosa (BIDPI); growth stage 23-25, height 10-20 cm, A-1 50 g ai/ha, 20 DAT, Table 2.1
97%: [1]; A-1 50 g ai/ha | [3]; growth stage 12-16, height 5-15 cm, A-1 25 g ai/ha, Table 2.6
86%: [3]; height 20-25 cm, A-1 25 g ai/ha, Table 2.2
82%: [4]; A-1 25 g ai/ha
75%: Panicum maximum (PANMA); A-1 25 g ai/ha
53%: Eleusine indica (ELEIN); growth stage 21-25, height 5-10 cm, A-1 25 g ai/ha, 20 DAT, Table 2.1
95%: Eleusine indica (ELEIN); growth stage 23-25, height 3-5 cm, A-1 50 g ai/ha, 21 DAT, Table 2.6 | [3]; height 15-35 cm, A-1 50 g ai/ha, Table 2.4
85%: [6]; A-1 25 g ai/ha | [8]; [23] | [8]; [24]
83%: [5]; A-1 50 g ai/ha
90%: [8]; [22] | [8]; AMARE, growth stage 31-49, height 10-12 cm, A-1 12.5 g ai/ha, 21 DAT, Table 4.3
80% and 93%: [8]; AMARE, growth stage 31-49, height 10-12 cm, A-1 18 g ai/ha, 7 DAT, Table 4.1
94%: [1]; A-1 25 g ai/ha | Eleusine indica (ELEIN); growth stage 23-25, height 3-5 cm, A-1 25 g ai/ha, 21 DAT, Table 2.6 | [4]; A-1 50 g ai/ha | Bidens pilosa (BIDPI); growth stage 12-16, height 5-10 cm, A-1 25 g ai/ha, 21 DAT, Table 2.6
92%: Bidens pilosa (BIDPI); height 20-45 cm, A-1 50 g ai/ha, 21 DAT, Table 2.4
60%: [2]; A-1 50 g ai/ha | [7]; [9] | [7]; [10] | [7]; [11] | [7]; LOLMU, growth stage 22-25, height 20-25 cm, A-1 18 g ai/ha, 7 DAT, Table 4.2 | [7]; LOLMU, growth stage 22-25, height 20-25 cm, A-1 18 g ai/ha, 21 DAT, Table 4.4
40%: [7]; [12] | [7]; [13] | [7]; [14] | [7]; [15] | [7]; [16] | [7]; [17]
88%: Ipomoea triloba (IPOTR); A-1 25 g ai/ha
80% and 92%: [8]; AMARE, growth stage 31-49, height 10-12 cm, A-1 18 g ai/ha, 21 DAT, Table 4.3
98%: [3]; growth stage 12-16, height 5-15 cm, A-1 50 g ai/ha, Table 2.6
59%: Eleusine indica (ELEIN); growth stage 21-25, height 5-10 cm, A-1 50 g ai/ha, 20 DAT, Table 2.1
80%: [8]; [18] | [8]; [19] | [8]; [20] | [8]; [21] | [8]; AMARE, growth stage 31-49, height 10-12 cm, A-1 12.5 g ai/ha, 7 DAT, Table 4.1
71%: Bidens pilosa (BIDPI); growth stage 23-25, height 10-20 cm, A-1 25 g ai/ha, 20 DAT, Table 2.1 | [5]; A-1 25 g ai/ha

Cn1nc(C(F)(F)F)c(CS(=O)(=O)C2=NOC(C)(C)C2)c1OC(F)F [B, pyroxasulfone]
10%: [7]; [9] | [7]; [10] | [7]; [11] | [7]; [12] | [7]; [13] | [7]; [14] | [7]; [15] | [7]; [16] | [7]; [17] | [7]; LOLMU, growth stage 22-25, height 20-25 cm, B 90 g ai/ha, 7 DAT, Table 4.2 | [7]; LOLMU, growth stage 22-25, height 20-25 cm, B 90 g ai/ha, 21 DAT, Table 4.4
5%: [1]; B 120 g ai/ha | Eleusine indica (ELEIN); growth stage 23-25, height 3-5 cm, B 120 g ai/ha, 21 DAT, Table 2.6 | [3]; growth stage 12-16, height 5-15 cm, B 120 g ai/ha, Table 2.6 | Bidens pilosa (BIDPI); growth stage 12-16, height 5-10 cm, B 120 g ai/ha, 21 DAT, Table 2.6
20%: [7]; LOLMU, growth stage 22-25, height 20-25 cm, B 70 g ai/ha, 21 DAT, Table 4.4
0%: [2]; B 120 g ai/ha | Panicum maximum (PANMA); B 120 g ai/ha | Eleusine indica (ELEIN); growth stage 21-25, height 5-10 cm, B 120 g ai/ha, 20 DAT, Table 2.1 | Eleusine indica (ELEIN); height 20-25 cm, B 120 g ai/ha, 21 DAT, Table 2.3 | Ipomoea triloba (IPOTR); B 120 g ai/ha | [3]; height 15-35 cm, B 120 g ai/ha, Table 2.4 | [3]; height 20-25 cm, B 120 g ai/ha, Table 2.2 | [4]; B 120 g ai/ha | Bidens pilosa (BIDPI); growth stage 23-25, height 10-20 cm, B 120 g ai/ha, 20 DAT, Table 2.1 | Bidens pilosa (BIDPI); height 20-45 cm, B 120 g ai/ha, 21 DAT, Table 2.4 | [5]; B 120 g ai/ha | [8]; [18] | [8]; [19] | [8]; [20] | [8]; [21] | [8]; [22] | [8]; [23] | [8]; [24] | [8]; AMARE, growth stage 31-49, height 10-12 cm, B 70 g ai/ha, 7 DAT, Table 4.1 | [8]; AMARE, growth stage 31-49, height 10-12 cm, B 70 g ai/ha, 21 DAT, Table 4.3 | [8]; AMARE, growth stage 31-49, height 10-12 cm, B 90 g ai/ha, 7 DAT, Table 4.1 | [8]; AMARE, growth stage 31-49, height 10-12 cm, B 90 g ai/ha, 21 DAT, Table 4.3
2%: [6]; B 120 g ai/ha

CP(=O)(O)CC[C@H](N)C(=O)O.N [C-12, glufosinate-P-ammonium]
30%: [7]; [12] | [7]; [13] | [7]; [14] | [7]; [15] | [7]; [16] | [7]; [17]
90%: [8]; [19] | [8]; [20]
50%: [7]; [9] | [7]; [10] | [7]; [11]
